Results reported in ChEMBL document CHEMBL2046368, “New triterpenoid saponins from cacti and anti-type I allergy activity of saponins from cactus” (Bioorg Med Chem Lett, 2012).

test system: RBL-2H3; test: Anti-type1 allergic activity in rat RBL2H3 cells using p-nitrophenyl-2-acdetamido-2-deoxy-beta-D-glucopyranoside as substrate assessed as inhibition of beta-hexosaminidase release incubated for 10 mins prior to substrate addition measured after 60 mins by spectrophotometry; type: functional, cell-based

| IC50 | SMILES |
| --- | --- |
| > 200 µM | COC(=O)[C@H]1O[C@@H](O[C@H]2CC[C@]3(C)[C@H]4CC=C5[C@@H]6CC(C)(C)C[C@H](O)[C@]67C[C@@H](OC7=O)[C@@]5(C)[C@]4(C)CC[C@H]3C2(C)C)[C@H](O[C@@H]2O[C@H](CO)[C@@H](O)[C@H](O)[C@H]2O[C@@H]2O[C@@H](C)[C@H](O)[C@@H](O)[C@H]2O)[C@@H](O)[C@@H]1O |
| > 200 µM | C[C@@H]1O[C@@H](O[C@@H]2[C@@H](O)[C@H](O[C@H]3CC[C@]4(C)[C@H]5CC=C6[C@@H]7CC(C)(C)CC[C@]7(C(=O)O[C@@H]7O[C@H](CO)[C@@H](O)[C@H](O)[C@H]7O)CC[C@@]6(C)[C@]5(C)CC[C@H]4C3(C)C)O[C@H](C(=O)O)[C@H]2O)[C@H](O)[C@H](O)[C@H]1O |
| > 200 µM | C[C@@H]1O[C@@H](O[C@H]2[C@H](O[C@H]3[C@H](O[C@H]4CC[C@]5(C)[C@H]6CC=C7[C@@H]8C[C@@](C)(CO)[C@@H](O)C[C@]89C[C@@H](OC9=O)[C@@]7(C)[C@]6(C)CC[C@H]5C4(C)C)O[C@H](C(=O)O)[C@@H](O)[C@@H]3O)O[C@H](CO)[C@@H](O)[C@@H]2O)[C@H](O)[C@H](O)[C@H]1O [BRIDGESIDE A1] |
| > 200 µM | CC(=O)OC[C@]1(C)C[C@H]2C3=CC[C@@H]4[C@@]5(C)CC[C@H](O[C@@H]6O[C@H](C(=O)O)[C@@H](O)[C@H](O)[C@H]6O[C@@H]6O[C@H](CO)[C@@H](O)[C@H](O)[C@H]6O[C@@H]6OC[C@@H](O)[C@H](O)[C@H]6O)C(C)(C)[C@@H]5CC[C@@]4(C)[C@]3(C)[C@H]3C[C@]2(C[C@@H]1O)C(=O)O3 [BRIDGESIDE D1] |
| > 200 µM | CC(=O)OC[C@]1(C)C[C@H]2C3=CC[C@@H]4[C@@]5(C)CC[C@H](O[C@@H]6O[C@H](C(=O)O)[C@@H](O)[C@H](O)[C@H]6O[C@@H]6O[C@H](CO)[C@@H](O)[C@H](O)[C@H]6O[C@@H]6O[C@@H](C)[C@H](O)[C@@H](O)[C@H]6O)C(C)(C)[C@@H]5CC[C@@]4(C)[C@]3(C)[C@H]3C[C@]2(C[C@@H]1O)C(=O)O3 [BRIDGESIDE D2] |
| > 200 µM | C[C@@H]1O[C@@H](O[C@H]2[C@H](O[C@H]3[C@H](O[C@H]4CC[C@]5(C)[C@H]6CC=C7[C@@H]8CC(C)(C)C[C@H](O)[C@]89C[C@@H](OC9=O)[C@@]7(C)[C@]6(C)CC[C@H]5C4(C)C)O[C@H](C(=O)O)[C@@H](O)[C@@H]3O)O[C@H](CO)[C@@H](O)[C@@H]2O)[C@H](O)[C@H](O)[C@H]1O [DUMORTIERINOSIDE A] |
| > 200 µM | C=C(C)[C@@H]1CC[C@]2(C(=O)O[C@@H]3O[C@H](CO)[C@@H](O)[C@H](O)[C@H]3O)CC[C@]3(C)[C@H](CC[C@@H]4[C@@]5(C)CC[C@H](O[C@@H]6O[C@H](C(=O)O)[C@@H](O)[C@H](O[C@@H]7O[C@@H](C)[C@H](O)[C@@H](O)[C@H]7O)[C@H]6O[C@@H]6O[C@@H](C)[C@H](O)[C@@H](O)[C@H]6O)C(C)(C)[C@@H]5CC[C@]43C)[C@@H]12 [ERUCASAPONIN A] |
| 99.5 µM | COC(=O)[C@H]1O[C@@H](O[C@H]2CC[C@]3(C)[C@H]4CC=C5[C@@H]6CC(C)(C)CC[C@]6(C=O)[C@@H](O)C[C@@]5(C)[C@]4(C)CC[C@H]3C2(C)C)[C@H](O[C@@H]2O[C@H](CO)[C@@H](O)[C@H](O)[C@H]2O)[C@@H](O[C@@H]2O[C@H](CO)[C@@H](O)[C@H](O)[C@H]2O)[C@@H]1O [GUMMOSOSIDE A METHYL ESTER] |
| > 200 µM | CC1(C)CC[C@]2(C=O)[C@@H](O)C[C@]3(C)C(=CC[C@@H]4[C@@]5(C)CC[C@H](O[C@@H]6O[C@H](C(=O)O)[C@@H](O)[C@H](O[C@@H]7O[C@H](CO)[C@@H](O)[C@H](O)[C@H]7O)[C@H]6O[C@@H]6O[C@H](CO)[C@@H](O)[C@H](O)[C@H]6O)C(C)(C)[C@@H]5CC[C@]43C)[C@@H]2C1 [GUMMOSOSIDE A] |
| > 200 µM | C[C@H]1C[C@]23C(=O)O[C@@]14C(=CC[C@@H]1[C@@]5(C)CC[C@H](O[C@@H]6O[C@H](C(=O)O)[C@@H](O)[C@H](O[C@@H]7OC[C@@H](O)[C@H](O)[C@H]7O)[C@H]6O[C@@H]6O[C@H](CO)[C@@H](O)[C@H](O)[C@H]6O)C(C)(C)[C@@H]5CC[C@]14C)[C@@H]2CC(C)(C)C[C@@H]3O[C@@H]1O[C@H](C(=O)O)[C@@H](O)[C@H](O)[C@H]1O [PACHANOSIDE D1] |
| > 200 µM | CC(=O)O[C@H]1CC(C)(C)C[C@H]2C3=CC[C@@H]4[C@@]5(C)CC[C@H](O[C@@H]6O[C@H](C(=O)O)[C@@H](O)[C@H](O[C@@H]7OC[C@@H](O)[C@H](O)[C@H]7O)[C@H]6O[C@@H]6O[C@H](CO)[C@@H](O)[C@H](O)[C@H]6O)C(C)(C)[C@@H]5CC[C@@]4(C)[C@]34OC(=O)[C@]12C[C@@H]4C [PACHANOSIDE I1] |
| > 200 µM | C[C@@H]1O[C@@H](O[C@@H]2[C@@H](O)[C@@H](O)[C@H](O[C@H]3[C@H](O[C@H]4CC[C@]5(C)[C@H]6CC[C@@H]7[C@H]8[C@H](C(C)(C)O)[C@@H]9C[C@@]8(CC[C@@]7(C)[C@]6(C)CC[C@H]5C4(C)C)C(=O)O9)O[C@H](C(=O)O)[C@@H](O)[C@@H]3O)O[C@H]2C)[C@H](O)[C@H](O)[C@H]1O [STELLATOSIDE A] |
| > 200 µM | CC(C)(O)[C@H]1[C@@H]2[C@H]3CC[C@@H]4[C@@]5(C)CC[C@H](O[C@@H]6O[C@H](C(=O)O)[C@@H](O)[C@H](O)[C@H]6O[C@@H]6O[C@H](CO)[C@@H](O)[C@H](O)[C@H]6O[C@@H]6OC[C@@H](O)[C@H](O)[C@H]6O)C(C)(C)[C@@H]5CC[C@@]4(C)[C@]3(C)CC[C@@]23C[C@@H]1OC3=O [STELLATOSIDE B] |
| > 200 µM | C[C@@H]1O[C@@H](O[C@H]2[C@H](O[C@H]3CC[C@]4(C)[C@H]5CC[C@@H]6[C@H]7[C@H](C(C)(C)O)[C@@H]8C[C@@]7(CC[C@@]6(C)[C@]5(C)CC[C@H]4C3(C)C)C(=O)O8)O[C@H](C(=O)O)[C@@H](O)[C@@H]2O[C@@H]2O[C@@H](C)[C@H](O)[C@@H](O)[C@H]2O)[C@H](O)[C@H](O)[C@H]1O [STELLATOSIDE C] |
| 167 µM | C=C(C)[C@H]1[C@@H]2[C@H]3CC[C@@H]4[C@@]5(C)CC[C@H](O[C@@H]6O[C@H](C(=O)O)[C@@H](O)[C@H](O[C@@H]7O[C@@H](C)[C@H](O)[C@@H](O)[C@H]7O)[C@H]6O[C@@H]6O[C@@H](C)[C@H](O)[C@@H](O)[C@H]6O)C(C)(C)[C@@H]5CC[C@@]4(C)[C@]3(C)CC[C@@]23C[C@@H]1OC3=O [THURBEROSIDE A] |

test system: RBL-2H3; test: Anti-type1 allergic activity in rat RBL2H3 cells using p-nitrophenyl-2-acdetamido-2-deoxy-beta-D-glucopyranoside as substrate assessed as inhibition of beta-hexosaminidase release at 100 uM incubated for 10 mins prior to substrate addition measured after 60 mins by spectrophotometry; type: functional

| SMILES | inhibition at 100 µM |
| --- | --- |
| COC(=O)[C@H]1O[C@@H](O[C@H]2CC[C@]3(C)[C@H]4CC=C5[C@@H]6CC(C)(C)C[C@H](O)[C@]67C[C@@H](OC7=O)[C@@]5(C)[C@]4(C)CC[C@H]3C2(C)C)[C@H](O[C@@H]2O[C@H](CO)[C@@H](O)[C@H](O)[C@H]2O[C@@H]2O[C@@H](C)[C@H](O)[C@@H](O)[C@H]2O)[C@@H](O)[C@@H]1O | 40.3% |

test system: RBL-2H3; test: Anti-type1 allergic activity in rat RBL2H3 cells using p-nitrophenyl-2-acdetamido-2-deoxy-beta-D-glucopyranoside as substrate assessed as inhibition of beta-hexosaminidase release at 200 uM incubated for 10 mins prior to substrate addition measured after 60 mins by spectrophotometry; type: functional

| SMILES | inhibition at 200 µM |
| --- | --- |
| C[C@@H]1O[C@@H](O[C@H]2[C@H](O[C@H]3[C@H](O[C@H]4CC[C@]5(C)[C@H]6CC=C7[C@@H]8CC(C)(C)C[C@H](O)[C@]89C[C@@H](OC9=O)[C@@]7(C)[C@]6(C)CC[C@H]5C4(C)C)O[C@H](C(=O)O)[C@@H](O)[C@@H]3O)O[C@H](CO)[C@@H](O)[C@@H]2O)[C@H](O)[C@H](O)[C@H]1O [DUMORTIERINOSIDE A] | 32.5% |
